The test system of series [1] is HIV-1 laboratory viral strain NL4.3. The series is described as follows: Anti-viral assay in vitro (MTT, infected MT-4 cells). It counts as cell-based. Conditions: reduce virus replication in cell culture by 50%, six days. As for the experimental part: (§1) To evaluate the EC50 of our compounds, various drug concentrations are incubated with the infected cell for six days and then the metabolic activity of the cells is monitored by the MTT assay. (See A. J. Japour et al, Antimicrobial Agents and Chemotherapy, 37, 1095-1101, 1993 and R. Pauwels et al. Journal of Virological Methods, 20, 309-321, 1988).
(§2) We use the laboratory viral strain NL4.3 as wild type virus and the cell line used is MT-4 which is a T-cell line highly sensitive to HIV-1. We also use some WT clinical strains. To address the resistance issue we assay the inhibitors with NL4.3 mutants which are designed to be resistant to specific commercially available inhibitors. The following reagents were obtained through the AIDS Research and Reference Reagent Program, division of AIDS, NIAID, NIH: pNL4.3 from Dr. Malcolm Martin; MT-4 cell line from Dr. Douglas Richman. Wild type (WT) clinical strains were obtained from “Laboratoire de santé publique du Québec”.

The test system of a further series is MT-4 cell line. The experiment in a line: Cytotoxicity assay in vitro (MTT, virus omitted). It counts as cell-based. On the procedure: as §1, §2
The same MTT assay is used to evaluate the CCIC50 of our compounds except that the virus is omitted.

In a further series the target is HIV-1 integrase (Human immunodeficiency virus type 1 group M subtype B, UniProt P12497). The experiment in a line: HIV-1 integrase inhibition assay in vitro (radiolabeled duplex substrate, U5 end of HIV LTR). Type of series: biochemical. On the procedure:
For the purpose of Table 1, the HIV-1 integrase inhibition assay was carried out following a known procedure (Burke, Jr. T. R. et al., J. Med. Chem. 38, 4171-4178 (1995)). A suitable radiolabeled duplex substrate corresponding to the U5 end of the HIV LTR was used.

The mark [2] stands for this setting: Human immunodeficiency virus 1, MT4, 144 h.
The mark [3] stands for this setting: IC50, concentration of drug required to reduce the enzyme activity by 50%.

Where a name gives a salt, the structure may show the parent alone. Read-outs that look alike come from different tables or passages of the source.

The results in this text go back to patent US6638921B1, “Pyridoxal-5-phosphate derivatives as HIV integrase inhibitors” (Pharmacor Inc., priority 2002, dated 2003).

In general, EC50 refers to the concentration giving half of the maximal effect. Broadly, the IC50 is the concentration that inhibits the measured activity by half.

Take `Cc1nc(N=Nc2ccc(S(=O)(=O)Nc3nccs3)cc2)c(COP(=O)(O)O)c(C=O)c1O` [Example 24, 6-[4-(2-Thiazolylsulfamoyl)phenylazo]-pyridoxal-5-phosphate]: in series [1] (setting [2]), the midpoint of the response, the EC50, lay at 23 µM. The CCIC50 with MT-4 cell line (human, 6 days) was more than 100 µM. At HIV-1 integrase (setting [3]), the IC50 turned out to be 0.365 µM.
Compound `Cc1nc(N=Nc2ccc(S(=O)(=O)Nc3ncccn3)cc2)c(COP(=O)(O)O)c(C=O)c1O` [Example 25, 6-[4-(2-Pyrimidylsulfamoyl)phenylazo]-pyridoxal-5-phosphate] registered an EC50 in series [1] (setting [2]) of 4.3 µM. The same compound displayed a CCIC50 in the series with MT-4 cell line (human, 6 days) of more than 100 µM. The same compound gave an IC50 against HIV-1 integrase (setting [3]) of 0.3 µM.
For `Cc1nc(N=Nc2cccc(S(=O)(=O)N3CCOCC3)c2)c(COP(=O)(O)O)c(C=O)c1O` [Example 27, 6-[3-(Morpholinesulfamoyl)phenylazo]-pyridoxal-5-phosphate] the same measures were 27.5 µM, more than 100 µM and 1.1 µM.
Turning to `Cc1nc(N=Nc2cccc(C(=O)Nc3cccnc3)c2)c(COP(=O)(O)O)c(C=O)c1O` [Example 28, 6-[3-(3-Pyridylcarbamoyl)phenylazo]-pyridoxal-5-phosphate], the EC50 in series [1] (setting [2]) was 6.25 µM. In the series on MT-4 cell line (human, 6 days), this compound registered a CCIC50 of 50 µM. This compound came in with an IC50 on HIV-1 integrase (setting [3]) of 3.25 µM.
In the case of `Cc1nc(N=Nc2cccc(C(=O)Nc3ccccn3)c2)c(COP(=O)(O)O)c(C=O)c1O` [Example 29, 6-[3-(2-Pyridylcarbamoyl)phenylazo]-pyridoxal-5-phosphate], a half-maximal effect in series [1] (setting [2]) (EC50) was put at 24 µM. This compound gave a CCIC50 in the series on MT-4 cell line (human, 6 days) of more than 100 µM. The same compound came in with an IC50 against HIV-1 integrase (setting [3]) of 3.85 µM.
For `Cc1nc(N=Nc2cccc(C(=O)Nc3ccncc3)c2)c(COP(=O)(O)O)c(C=O)c1O` [Example 30, 6-[3-(4-Pyridylcarbamoyl)phenylazo]-pyridoxal-5-phosphate] the same measures were 20 µM, 87 µM and 3.15 µM.
Turning to `Cc1nc(N=Nc2cccc(C(=O)Nc3cccc4cnccc34)c2)c(COP(=O)(O)O)c(C=O)c1O` [Example 31, 6-[3-(5-Isoquinolylcarbamoyl)phenylazo]-pyridoxal-5-phosphate], a half-maximal effect in series [1] (setting [2]) (EC50) was put at 15 µM. The compound also registered a CCIC50 in the series on MT-4 cell line (human, 6 days) of more than 100 µM. The compound further displayed an IC50 on HIV-1 integrase (setting [3]) of 3.25 µM.
`Cc1nc(N=Nc2cccc(C(=O)Nc3cccc4c3CCCN4)c2)c(COP(=O)(O)O)c(C=O)c1O` [Example 37, 6-[3-(5-(1,2,3,4-Tetrahydroquinolyl)carbamoyl)phenylazo]-pyridoxal-5-phosphate] displayed an EC50 in series [1] (setting [2]) of 26 µM. In addition, the CCIC50 with MT-4 cell line (human, 6 days) came to 84 µM. For the same compound, the IC50 at HIV-1 integrase (setting [3]) is 3.3 µM.
For `Cc1ccc(C(=O)O)cc1N=Nc1nc(C)c(O)c(C=O)c1COP(=O)(O)O` [Example 38, 6-(5-Carboxy-2-methylphenylazo)-pyridoxal-5-phosphate] the same measures were 50 µM, more than 100 µM and 2.3 µM.
In turn, `Cc1nc(N=Nc2cccc(C(=O)O)c2Cl)c(COP(=O)(O)O)c(C=O)c1O` [Example 39, 6-(3-Carboxy-2-chlorophenylazo)-pyridoxal-5-phosphate] displayed an EC50 in series [1] (setting [2]) of 1.8 µM. Further, the CCIC50 with MT-4 cell line (human, 6 days) was more than 100 µM. Besides, the IC50 at HIV-1 integrase (setting [3]) amounted to 2.6 µM.
In the case of `Cc1nc(N=Nc2cc(C(=O)O)ccc2Cl)c(COP(=O)(O)O)c(C=O)c1O` [Example 40, 6-(5-Carboxy-2-chlorophenylazo)-pyridoxal-5-phosphate], the EC50 in series [1] (read-out: EC50) amounted to 17 µM. Moreover, the CCIC50 in the series on MT-4 cell line (reduce cell survival by 50%, MTT assay, virus omitted) is more than 100 µM. For the same compound, the IC50 on HIV-1 integrase (concentration of drug required to reduce the enzyme activity by 50%, read-out: IC50) was determined as 3.35 µM.
With `Cc1nc(N=Nc2cc(F)c(F)c(C(=O)O)c2F)c(COP(=O)(O)O)c(C=O)c1O` [Example 41, 6-(3-Carboxy-2,4,5-trifluorophenylazo)-pyridoxal-5-phosphate], in series [1] (setting [2]), the concentration giving a half-maximal response (EC50) was found to be 14 µM. The CCIC50 with MT-4 cell line (human, 6 days) was more than 100 µM. On HIV-1 integrase (setting [3]), this compound registered an IC50 of 2 µM.
For `Cc1nc(N=Nc2cccc(C(=O)O)c2C(=O)O)c(COP(=O)(O)O)c(C=O)c1O` [Example 47, 6-(2,3-Dicarboxyphenylazo)-pyridoxal-5-phosphate] the same measures were 10 µM, 17 µM and 0.165 µM.
Consider `Cc1nc(N=Nc2ccccc2C(=O)O)c(COP(=O)(O)O)c(C=O)c1O` [Example 48, 6-(2-Carboxyphenylazo)-pyridoxal-5-phosphate], for which, in series [1] (setting [2]), the EC50 is more than 20 µM. Also, the CCIC50 in the series on MT-4 cell line (human, 6 days) was more than 100 µM. On HIV-1 integrase (setting [3]), this compound registered an IC50 of 0.345 µM.
As to `Cc1nc(N=Nc2cc(C(=O)O)cc(C(=O)O)c2)c(COP(=O)(O)O)c(C=O)c1O` [Example 49, 6-(3,5-Dicarboxyphenylazo)-pyridoxal-5-phosphate Methanesulfonic Acid Salt], the EC50 in series [1] worked out at 0.275 µM. The CCIC50 with MT-4 cell line (human, 6 days) amounted to 12 µM. At HIV-1 integrase (setting [3]), this compound had a half-inhibitory concentration (IC50) of 0.5 µM.
For `Cc1nc(N=Nc2cc(C(=O)O)cc(C(=O)O)c2)c(COP(=O)(O)O)c(C=O)c1O` [Example 50, 6-(3,5-Dicarboxyphenylazo)-pyridoxal-5-phosphate Penta-potassium Salt], in that order: 5 µM, more than 100 µM and 0.47 µM.
In series [1] (setting [2]), `CCOC(OCC)c1c(O)c(C)nc(N=Nc2cc(C(=O)O)cc(C(=O)O)c2)c1COP(=O)(O)O` [Example 51, 6-(3,5-Dicarboxyphenylazo)-pyridoxal-5-phosphate Diethylacetal] yielded a 50% effective concentration (EC50) of 0.35 µM. The CCIC50 in the series on MT-4 cell line (human, 6 days) is more than 100 µM. In addition, inhibition against HIV-1 integrase (setting [3]) was half-maximal at 0.125 µM (IC50).
For `Cc1nc(N=Nc2cc(C(=O)O)cc(C(=O)O)c2)c(COP(=O)(O)O)c(C=NO)c1O` [Example 52, 6-(3,5-Dicarboxyphenylazo)-pyridoxal-5-phosphate Oxime] the same measures were 15 µM, 60 µM and 8.75 µM.
